The values below come from patent US9938301B2, “Dihydropyrimido fused ring derivative as HBV inhibitor” (QILU PHARMACEUTICAL CO., LTD., priority 2014, dated 2018).

The subject of the first assay is HBV DNA in HepG2.2.15 cells. As to the kind of experiment: HBV in vitro dot-blot hybridization test. It is filed as cell-based, Hepatitis B virus. The conditions noted are these: Hepatitis B virus, HepG2.2.15, dot-blot hybridization assay, read-out: Concentration for 50% inhibition of HBV (EC50)value. Here is the method: • 1. Purpose of the test: • The content of HBV DNA in HepG2.2.15 cells was detected by dot-blot hybridization test to evaluate an inhibitory action of the compound on HBV with an EC50 value as an indicator. • 2. Experimental materials: • 2.1 Cell lines: HepG2.2.15 Cells • HepG2.2.15 cell culture media (DMEM/F12, Invitrogen-11330057; 10% serum Invitrogen-10099141; 100 units/mL Penicillin and 10 μg/mL Streptomycin, Invitrogen-15140122; 1% non-essential amino acid, Invitrogen-11140076; 2 mM L-GLUTAMINE, Invitrogen-25030081; 300 µg/ml Geneticin, Invitrogen-10131027 • 2.2 Reagents: • Trypsin (I Invitrogen-25300062) • DPBS (Hyclone-SH30028.01B) • DMSO (Sigma-D2650-100ML) • 96-well cell-culture plate (Corning-3599) • CO2 incubator (HERA-CELL-240) • 20×SSC (Bio-serve Co. Ltd) • Tris-HCl (Aldirch-154563-1KG) • NaOH (Sinopharm 10019718) • NaCl (Sinopharm 10019308) • Hybridization solution (Major BioTech Co. Ltd, IMMUNE GOLD-HYB-500) • DIG Wash and Block Buffer set (Roche-11585762001) • Anti-digoxigenin-AP, Fab fragments from sheep (Roche-11093274910) • 2.3 Materials and Instruments: • Positively-Charged Nylon Membrane (GE-RPN2250B) • Transfer Membrane Instrument (Bio-Rad, 170-6545) • Hybridization Oven (HL-2000 Hybrilinker) • 3. Testing steps and Methods: • 3.1 HepG2.2.15 cells (4×10^4 cells/well) were planted into a 96-well plate, and at 37° C., 5% CO2 cultured overnight. • 3.2 On Day 2, the compounds were diluted in totally 6 concentrations with a dilution gradient of five times. The compounds at different concentrations were added into the culture wells in duplicate. The final concentration of DMSO in the culture media was 1%. 1 μM GLS4 was used as 100% inhibition control; 1% DMSO as 0% inhibition control. • 3.3 On Day 5, replacing with the fresh culture media containing the compound was performed. • 3.4 On Day 8 and Day 9, the culture media in the culture wells was removed, and the cells were harvested for dot-blot hybridization. • The lysate was added into a culture well, and at 37° C. incubating for half an hour to disintegrate cells; the supernatant was obtained by centrifugation and transferred into a new microplate; a denaturation solution was added, after sufficient mixing the denatured sample was transferred and imprinted onto a Nylon membrane, the nucleic acid was fixed onto the membrane by UV cross-linking. • Pre-hybridization: the membrane was incubated at 60° C. in a hybridization solution for 1 hour. • Hybridization: heating the denatured digoxin-labelled HBV DNA probe and incubating at 60° C. overnight. • Membrane Washing: performing high strigency washing twice, low strigency washing for 3 times. • Blocking: incubating the membrane at room temperature in a blocking solution for 30-60 minutes. • Hybridization: diluting the Antibody Solution with the blocking solution, in which the membrane was placed and incubated at room temperature for 30-60 minutes. • Developing: washing the membrane in a Detection Buffer for 5 minutes, followed by adding a developing solution, pressing and exposing. • The photos was saved in tiff format, and a gray value of the dot was quantified with quantity one software. • 3.5 Data Analysis: • 3.5.1 The inhibition percentage was calculated: % Inh.=[1−(sample dot gray value−1 μM GLS4 dot gray value 1)/(DMSO control dot gray value−1 μM GLS4 dot gray value 1)]×100. • 3.5.2 Calculating EC50: the concentration of the compound for 50% inhibition of HBV (EC50) was calculated by using GraphPad Prism Software. • 4.
Turning to `CCOC(=O)C1=C2C[C@@H](CN3CCOCC3)CN2C(c2nccs2)=N[C@H]1c1ccc(F)cc1Br` [Example 16], the EC50 is 1 to 5 µM.
Same read-out and setting: the value for `CCOC(=O)CN(C)C[C@@H]1CC2=C(C(=O)OCC)[C@H](c3ccc(F)cc3Br)N=C(c3nccs3)N2C1` [Example 19] was 1 to 5 µM; that for `CCOC(=O)CN(C)C[C@H]1CC2=C(C(=O)OCC)[C@H](c3ccc(F)cc3Br)N=C(c3nccs3)N2C1` [Example 20] was 1 to 5 µM; that for `CCOC(=O)C1=C2C[C@@H](CN3CCC[C@H]3C(=O)OC)CN2C(c2nccs2)=N[C@H]1c1ccc(F)cc1Br` [Example 21] was 1 to 5 µM.
Take `CCOC(=O)C1=C2C[C@H](CN3CCC[C@H]3C(=O)OC)CN2C(c2nccs2)=N[C@H]1c1ccc(F)cc1Br` [Example 22]: the EC50 lay within 1 to 5 µM.
On the same count and under the same terms, the value for `CCOC(=O)C1=C2C[C@H](C#N)CN2C(c2nccs2)=N[C@H]1c1ccc(F)cc1Cl` [Example 24] was 0.5 to 1 µM; that for `CCOC(=O)C1=C2C[C@@H](C#N)CN2C(c2nccs2)=N[C@H]1c1ccc(F)cc1Cl` [Example 25] was 1 to 5 µM.
`CCOC(=O)C1=C2C[C@@H](C(N)=O)CN2C(c2nccs2)=N[C@H]1c1ccc(F)cc1Cl` [Example 30]: the EC50 lay in the range of 0.1 to 0.5 µM.
The same measure, in the same setting: the value for `CCOC(=O)C1=C2C[C@H](C(N)=O)CN2C(c2nccs2)=N[C@H]1c1ccc(F)cc1Cl` [Example 31] was 0.1 to 0.5 µM; that for `CCOC(=O)C1=C2C[C@H](c3nnn[nH]3)CN2C(c2nccs2)=N[C@H]1c1ccc(F)cc1Cl` [Example 32] was 1 to 5 µM.
For `CCOC(=O)C1=C2C[C@@H](c3nnn[nH]3)CN2C(c2nccs2)=N[C@H]1c1ccc(F)cc1Br` [Example 33], the EC50 is 1 to 5 µM.
Same read-out and setting: the value for `CCOC(=O)C1=C2C[C@H](O)CN2C(c2nccs2)=N[C@H]1c1ccc(F)cc1Cl` [Example 34] was 0.1 to 0.5 µM; that for `CCOC(=O)C1=C2C[C@H](O)CN2C(c2nccs2)=N[C@@H]1c1ccc(F)cc1Cl` [Example 35] was 1 to 5 µM; that for `CCOC(=O)C1=C2C[C@H](N(C)C)CN2C(c2nccs2)=N[C@H]1c1ccc(F)cc1Br` [Example 36] was 0.5 to 1 µM.
Same read-out and setting: the value for `CCOC(=O)C1=C2C[C@@H](N(C)C)CN2C(c2nccs2)=N[C@H]1c1ccc(F)cc1Br` [Example 37] was 1 to 5 µM; that for `CCOC(=O)C1=C2C[C@H](NC(=O)OC(C)(C)C)CN2C(c2nccs2)=N[C@H]1c1ccc(F)cc1Br` [Example 38] was less than 0.1 µM; that for `CCOC(=O)C1=C2C[C@@H](NC(=O)OC(C)(C)C)CN2C(c2nccs2)=N[C@H]1c1ccc(F)cc1Br` [Example 39] was less than 0.1 µM.
`CCOC(=O)C1=C2C[C@@H](N)CN2C(c2nccs2)=N[C@H]1c1ccc(F)cc1Br` [Example 40]: the EC50 was in the range of 1 to 5 µM.
Still for that read-out and setting: the value for `CCOC(=O)C1=C2C[C@H](N)CN2C(c2nccs2)=N[C@H]1c1ccc(F)cc1Br` [Example 41] was 1 to 5 µM.
Consider `CCOC(=O)C1=C2C[C@@H](NC(=O)OC)CN2C(c2nccs2)=N[C@H]1c1ccc(F)cc1Br` [Example 43], for which the EC50 was 0.1 to 0.5 µM.

Staying with this assay, now noted: Hepatitis B virus, HepG2.2.15, summary list of target compounds, Examples 1-165 (same as Table 2), read-out: BIOACTIVITY (inhibitory actions on HBV DNA, EC50).
As to `CCOC(=O)C1=C2C[C@@H](CN3CCOCC3)CN2C(c2nccs2)=N[C@H]1c1ccc(F)cc1Br` [Example 16], the EC50 is 1 to 5 µM.
Still for that read-out and setting: the value for `CCOC(=O)CN(C)C[C@@H]1CC2=C(C(=O)OCC)[C@H](c3ccc(F)cc3Br)N=C(c3nccs3)N2C1` [Example 19] was 1 to 5 µM; that for `CCOC(=O)CN(C)C[C@H]1CC2=C(C(=O)OCC)[C@H](c3ccc(F)cc3Br)N=C(c3nccs3)N2C1` [Example 20] was 1 to 5 µM; that for `CCOC(=O)C1=C2C[C@@H](CN3CCC[C@H]3C(=O)OC)CN2C(c2nccs2)=N[C@H]1c1ccc(F)cc1Br` [Example 21] was 1 to 5 µM.
As to `CCOC(=O)C1=C2C[C@H](CN3CCC[C@H]3C(=O)OC)CN2C(c2nccs2)=N[C@H]1c1ccc(F)cc1Br` [Example 22], the EC50 is 1 to 5 µM.
Take `CCOC(=O)C1=C2C[C@H](C#N)CN2C(c2nccs2)=N[C@H]1c1ccc(F)cc1Cl` [Example 24]: the EC50 is 0.5 to 1 µM.
Turning to `CCOC(=O)C1=C2C[C@@H](C#N)CN2C(c2nccs2)=N[C@H]1c1ccc(F)cc1Cl` [Example 25], the EC50 fell in the range of 1 to 5 µM.
On the same count and under the same terms, the value for `CCOC(=O)C1=C2C[C@@H](C(N)=O)CN2C(c2nccs2)=N[C@H]1c1ccc(F)cc1Cl` [Example 30] was 0.1 to 0.5 µM; that for `CCOC(=O)C1=C2C[C@H](C(N)=O)CN2C(c2nccs2)=N[C@H]1c1ccc(F)cc1Cl` [Example 31] was 0.1 to 0.5 µM; that for `CCOC(=O)C1=C2C[C@H](c3nnn[nH]3)CN2C(c2nccs2)=N[C@H]1c1ccc(F)cc1Cl` [Example 32] was 1 to 5 µM.
Turning to `CCOC(=O)C1=C2C[C@@H](c3nnn[nH]3)CN2C(c2nccs2)=N[C@H]1c1ccc(F)cc1Br` [Example 33], the EC50 is 1 to 5 µM.
`CCOC(=O)C1=C2C[C@H](O)CN2C(c2nccs2)=N[C@H]1c1ccc(F)cc1Cl` [Example 34]: the EC50 was in the range of 0.1 to 0.5 µM.
The same measure, in the same setting: the value for `CCOC(=O)C1=C2C[C@H](O)CN2C(c2nccs2)=N[C@@H]1c1ccc(F)cc1Cl` [Example 35] was 1 to 5 µM; that for `CCOC(=O)C1=C2C[C@H](N(C)C)CN2C(c2nccs2)=N[C@H]1c1ccc(F)cc1Br` [Example 36] was 0.5 to 1 µM; that for `CCOC(=O)C1=C2C[C@@H](N(C)C)CN2C(c2nccs2)=N[C@H]1c1ccc(F)cc1Br` [Example 37] was 1 to 5 µM.
The same measure, in the same setting: the value for `CCOC(=O)C1=C2C[C@H](NC(=O)OC(C)(C)C)CN2C(c2nccs2)=N[C@H]1c1ccc(F)cc1Br` [Example 38] was less than 0.1 µM; that for `CCOC(=O)C1=C2C[C@@H](NC(=O)OC(C)(C)C)CN2C(c2nccs2)=N[C@H]1c1ccc(F)cc1Br` [Example 39] was less than 0.1 µM; that for `CCOC(=O)C1=C2C[C@@H](N)CN2C(c2nccs2)=N[C@H]1c1ccc(F)cc1Br` [Example 40] was 1 to 5 µM.
Still for that read-out and setting: the value for `CCOC(=O)C1=C2C[C@H](N)CN2C(c2nccs2)=N[C@H]1c1ccc(F)cc1Br` [Example 41] was 1 to 5 µM; that for `CCOC(=O)C1=C2C[C@@H](NC(=O)OC)CN2C(c2nccs2)=N[C@H]1c1ccc(F)cc1Br` [Example 43] was 0.1 to 0.5 µM.
